What was measured:
Notch = settings: 4 hours on SVEP1 vs BSA
Procedure: Cells were collected, resuspended in SFM, and incubated for 1 hr with gentle agitation before seeding on tissue culture wells that were precoated and blocked, as described in previous sections. Cells were collected for analysis after 4 hr of growth on the indicated substrate. Svep1SMC+/+ and Svep1SMCΔ/Δ VSMCs were collected for analysis after 72 hr of incubation in SFM to obtain basal Notch signaling.

platelets = system: platelets
Procedure: Complete blood counts (CBC) and washed platelet counts were determined using a hematology analyzer Element HT5 (Heska, Loveland). […] For flow cytometry, diluted whole blood or isolated platelets were pre-incubated with their respective fluorescent antibodies for 15 minutes and fixed. For murine whole blood: CD41-VioBlue, CD61-PE (Mitlenyi Biotec, Bergisch Gladbach, Germany), CD42b-DL649, GPVI-FITC (Emfret, Eibelstadt, Germany) and for human whole blood and isolated platelets: CD41-FITC, CD61-APC, CD42b-PE (Biolegend, San Diego), GPVI-BV421 617 (BD, Franklin Lakes). Platelet surface receptor levels were quantified by flow cytometry on a 618 CytoFlex analyzer.

HUVECs = experiment: HUVEC adhesion assay; type: cell-based, human; settings: wells coated with increasing concentrations, 10 minutes
Procedure: Subsequently, wells were blocked with 100 mg/mL BSA and washed with DPBS. HUVECs were collected and resuspended in basal media. 5,000 cells were added to each well. Cells were centrifuged and incubated at 37° C. for 10 minutes. The plate was gently centrifuged upside down to remove non-adhered cells. Adhered cells were fixed with 4% paraformaldehyde, stained with 4′,6-diamidino-2-phenylindole (DAPI), and counted by automated microscopy as done previously.

[1] = system: integrin signaling kinases; experiment: Integrin signaling western blot, VSMCs; type: cell-based, mouse; settings: VSMCs adherent to coated wells, relative to inert protein control
Procedure: (§1) Cells were resuspended in serum-free media (SFM) and incubated with gentle agitation to prevent cell attachment and reduce basal signaling. […] Cells were briefly centrifuged to the bottom of the wells and incubated for 8 min (for VSMCs) or 15 min (for THP-1 cells) before lysis with cell lysis buffer (#9803, Cell Signaling Technologies) containing a cocktail of protease and phosphatase inhibitors. Western blots were performed by standard techniques, as briefly follows. Protein content was determined using a bicinchoninic acid assay with BSA standards (#23225, Pierce™ BCA Protein Assay Kit). Cell lysates were then reduced with DTT in lithium dodecyl sulfate sample buffer (#NP0007, Invitrogen). Equal protein amounts were added to polyacrylamide gels (#4561086, BioRad) and electrophoresed prior to transferring to a nitrocellulose or polyvinylidene fluoride membrane (#1620260, BioRad). Membranes were blocked in 5% BSA/Tris-Buffered Saline with tween 20 for 30 min. The indicated primary antibodies were incubated with the pre-blocked membranes for overnight at 4° C. Membranes were washed with Tris-Buffered Saline with tween 20, probed with fluorescent secondary antibodies, and imaged. β-actin or β-tubulin served as a loading control.

Pearl 1ECD = Pearl 1ECD (Homo sapiens, UniProt Q5VY43); settings: pulldown assays
Procedure: The assay buffer consisted of lmg/mL BSA, 0.01% Tween 20, and 10 mM Ca^2+ in PBS. The proteins were incubated together for two hours while rotating. Where indicated, 2 μg primary antibodies were added during the final 30 minutes of the initial incubation. Following the incubation, aliquots were reserved as the input fraction. Subsequently, 6-10 μL slurry of Pierce Anti-c-Myc Magnetic Beads, Invitrogen Dynabeads Protein G beads, or Pierce Streptavidin Magnetic Bead slurry were added, followed by a 1-hour incubation at 20° C. with gentle agitation. Beads were washed in PBS +0.01% Tween 20 and resuspended reducing LDS sample buffer and analyzed by immunoblot assay.

mTOR = mTOR signaling, phospho-array and immunoblot, HUVECs; type: cell-based, human
Procedure: Prior to performing signaling assays, cells were trypsinized, centrifuged, suspended in basal media, and counted using an automated hemocytometer. Cells were further diluted in basal media to an assay-dependent concentration. Cells were then incubated with gentle agitation for 60 minutes to prevent cell attachment and reduce basal signaling. PP1, Dynasore, MK-2206, and Rapamycin were diluted in DMSO and used in assay concentrations of 10 μM, 100 μM, 10 μM, and respectively, for the final 20-30 minutes of incubation in basal media. An equal volume of DMSO was used as the negative control condition. […] 1 μg Pearl 1 polyclonal antibody was added as a specific positive control. 20% growth media or 2% fetal bovine serum, labeled “Serum” in figures, was added as a non-specific positive control. The cells were centrifuged at 300G for 3 minutes with the exception of platelets, which were centrifuged at 500G for 5 minutes. The cells were then incubated at 37° C. for 8-45 minutes, depending on the cell type and pathway of interest. The cells were lysed in radioimmunoprecipitation buffer (RIPA) containing a cocktail of protease and phosphatase inhibitors and universal nuclease. Immunoblots were performed by standard techniques, as briefly follows. Protein content was determined using a bicinchoninic acid assay with BSA standards (#23225, Pierce BCA Protein Assay Kit). Cell lysates were then reduced with dithiothreitol (DTT) in lithium dodecyl sulfate (LDS) sample buffer (#NP0007, Invitrogen). Equal protein amounts were added to polyacrylamide gels (#4561086, BioRad) and electrophoresed prior to transferring to a nitrocellulose or polyvinylidene fluoride membrane (#1620260, BioRad). Membranes were blocked in 5% BSA/Tris-buffered saline (TBS) with 0.1% Tween 20 for 30 minutes. The indicated primary antibodies were incubated with the pre-blocked membranes overnight at 4° C. Membranes were washed with TBS with 0.1% Tween 20, probed with fluorescent secondary antibodies, and imaged. β-actin or β-tubulin served as a loading control. […]

AKT = settings: BSA, N-terminal, C-terminal and full-length SVEP1
Integrin signaling = Integrin signaling western blot, THP-1 cells; type: cell-based, human
Procedure: as §1

Pearl 1ECD, sequence (Q5VY43 21-755 limits assumed): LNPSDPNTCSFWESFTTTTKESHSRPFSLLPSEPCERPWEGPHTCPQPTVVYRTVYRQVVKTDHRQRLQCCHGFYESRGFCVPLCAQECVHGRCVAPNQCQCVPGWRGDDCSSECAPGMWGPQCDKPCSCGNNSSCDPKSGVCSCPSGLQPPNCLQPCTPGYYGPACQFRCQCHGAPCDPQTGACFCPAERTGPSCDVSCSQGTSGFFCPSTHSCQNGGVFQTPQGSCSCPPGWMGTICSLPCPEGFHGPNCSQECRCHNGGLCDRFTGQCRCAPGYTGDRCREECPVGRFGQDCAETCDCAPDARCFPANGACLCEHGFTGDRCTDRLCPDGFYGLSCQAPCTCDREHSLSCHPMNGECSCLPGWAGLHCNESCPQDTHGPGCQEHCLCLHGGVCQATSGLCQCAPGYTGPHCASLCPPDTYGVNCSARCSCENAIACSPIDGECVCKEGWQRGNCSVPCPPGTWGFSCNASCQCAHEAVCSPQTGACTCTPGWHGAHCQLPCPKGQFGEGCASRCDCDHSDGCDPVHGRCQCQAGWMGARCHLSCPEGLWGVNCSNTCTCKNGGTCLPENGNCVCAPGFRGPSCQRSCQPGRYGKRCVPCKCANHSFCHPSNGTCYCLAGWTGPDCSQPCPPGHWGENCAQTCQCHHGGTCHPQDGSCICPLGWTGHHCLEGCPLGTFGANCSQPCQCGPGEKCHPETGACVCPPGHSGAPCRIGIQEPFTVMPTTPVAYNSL

SVEP1: recombinant murine SVEP1 extracellular matrix protein with Myc and poly-histidine tag, expressed in 293F cells
expression of canonical Notch targets Hey2 and Hes 1 (Notch): significantly increased expression | platelet aggregation and agglutination (platelets; platelets from mice compared to humans): notably milder | platelet aggregation (decrease in whole blood platelet count) (platelets; soluble recombinant SVEP1, human whole blood): induced spontaneous platelet aggregation and agglutination | adherence of HUVECs to coated protein (HUVECs): dose-dependent manner up to 20 pg/mL | phosphorylation of FAK, Paxillin, Src, ERK and p38 [1]: increased phosphorylation | co-immunoprecipitation of Pearl 1ECD with Myc-tagged SVEP1 (Pearl 1ECD): co-immunoprecipitates | phosphorylated mTOR (Ser 2448) and p70S6K Thr 389, immunoblot (mTOR; 10 or 30 minutes): activation of mTOR signaling | AKT pathway phospho-proteins (mTOR; 10 minutes of exposure): Few changes | mTOR pathway phospho-proteins (p70S6K, RPS6, 4E-BP1) (mTOR; 30 minutes of exposure): elevated | activation of AKT signaling (phospho-AKT) (AKT): necessary to activate AKT signaling | integrin signaling (Integrin signaling): activated

— patent publication US20230159620A1, “COMPOSITIONS AND METHODS OF TREATMENT FOR VASCULAR DISEASES AND THROMBOSIS” (Washington University, priority 2021, published 2023)
